From patent publication US7604806B2, “Use of a lyophilisate of dedifferentiated plant cells for skin depigmentation and/or lightening” (Biotechmarine, priority 2003, dated 2009)

System: reconstructed epidermes SKINETHIC® integrating melanocytes (type IV)
Experiment: Assay of the melanin on reconstructed epidermes integrating melanocytes
Format: cell-based, human
Method: The cells are grown for 10 days at the air/liquid interface, the growth medium is being changed daily. The thus formed type IV epidermis (=negroid) were used from the 10th day of culture. […] Marine cells obtained in Examples 1 and 2. The assessment of the synthesis of intracellular melanin (qualitative study) was carried out by spectrometry at 475 nm after that the cells were suspended, then dissolved in NaOH (1N) and dimethyl sulfoxide for 30 minutes.

O=c1cc(CO)occ1O [Positive control, kojic acid]
Melanin, % vs negative control (change of the rate of melanin compared to negative control): −44% | Melanin, Absorbance (475 nm) (intracellular melanin, type IV epidermes, duplicate): 0.09 ± 0.01
